Key:
Experiment in all cases: relative viability (nuclei count vs DMSO), 5 days (fraction); higher = more cells survive
HCC-366 = system: HCC-366
Procedure, shortened: (§1)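 Nuclei were stained with Hoechst during a one-step fixation (final 0.05% Triton X-100, 1% formaldehyde, 1 ug/ml Hoechst) carried out 5 days after dosing, then counted on 4× images. The cells, lung cancer lines in 1536-well plates, had been dosed by pin tool the day after seeding with one drug alone or a fixed anchor-drug dose plus five library-drug doses (not always all listed) in √10 steps. Relative viability is the nuclei count in treated wells divided by that in vehicle wells, and each value is the median of duplicate plates.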

NCI-H3122 = system: NCI-H3122
Procedure, shortened: as §1

NCI-H1703 = system: NCI-H1703
Procedure, shortened: as §1

IA-LM = system: IA-LM
Procedure, shortened: as §1

Calu-6 = system: Calu-6
Procedure, shortened: as §1

HCC-44 = system: HCC-44
Procedure, shortened: as §1

EBC-1 = system: EBC-1
Procedure, shortened: as §1

A549 = system: A549
Procedure, shortened: as §1

NCI-H1299 = system: NCI-H1299
Procedure, shortened: as §1

NCI-H2085 = system: NCI-H2085
Procedure, shortened: as §1

LOU-NH91 = system: LOU-NH91
Procedure, shortened: as §1

NCI-H1437 = system: NCI-H1437
Procedure, shortened: as §1

O=c1cc(N2CCOCC2)oc2c(-c3cccc4c3sc3ccccc34)cccc12 + CS(=O)(=O)CCNCc1ccc(-c2ccc3ncnc(Nc4ccc(OCc5cccc(F)c5)c(Cl)c4)c3c2)o1 [Lapatinib] (partner 2 µM)
relative viability (HCC-366; first compound 0.01 µM): 0.968
relative viability (HCC-366; first compound 0.03162 µM): 1.06
relative viability (HCC-366; first compound 0.1 µM): 1.04
relative viability (HCC-366; first compound 0.3162 µM): 1.04
relative viability (HCC-366; first compound 1 µM): 1.04
relative viability (NCI-H3122; first compound 0.01 µM): 1.04
relative viability (NCI-H3122; first compound 0.03162 µM): 0.961
relative viability (NCI-H3122; first compound 0.1 µM): 1.03
relative viability (NCI-H3122; first compound 0.3162 µM): 0.953
relative viability (NCI-H3122; first compound 1 µM): 0.97
relative viability (NCI-H1703; first compound 0.01 µM): 1.36
relative viability (NCI-H1703; first compound 0.03162 µM): 0.815
relative viability (NCI-H1703; first compound 0.1 µM): 1.27
relative viability (NCI-H1703; first compound 0.3162 µM): 1.17
relative viability (NCI-H1703; first compound 1 µM): 1.01
relative viability (IA-LM; first compound 0.01 µM): 0.764
relative viability (IA-LM; first compound 0.03162 µM): 0.582
relative viability (IA-LM; first compound 0.1 µM): 0.663
relative viability (IA-LM; first compound 0.3162 µM): 0.86
relative viability (IA-LM; first compound 1 µM): 0.602
relative viability (Calu-6; first compound 0.01 µM): 1.08
relative viability (Calu-6; first compound 0.03162 µM): 1.11
relative viability (Calu-6; first compound 0.1 µM): 1.17
relative viability (Calu-6; first compound 0.3162 µM): 1.08
relative viability (Calu-6; first compound 1 µM): 1.05
relative viability (HCC-44; first compound 0.01 µM): 1.01
relative viability (HCC-44; first compound 0.03162 µM): 0.995
relative viability (HCC-44; first compound 0.1 µM): 1.11
relative viability (HCC-44; first compound 0.3162 µM): 0.946
relative viability (HCC-44; first compound 1 µM): 1.07
relative viability (EBC-1; first compound 0.01 µM): 0.227
relative viability (EBC-1; first compound 0.03162 µM): 0.207
relative viability (EBC-1; first compound 0.1 µM): 0.246
relative viability (EBC-1; first compound 0.3162 µM): 0.237
relative viability (EBC-1; first compound 1 µM): 0.227
relative viability (A549; first compound 0.01 µM): 0.964
relative viability (A549; first compound 0.03162 µM): 0.931
relative viability (A549; first compound 0.1 µM): 0.997
relative viability (A549; first compound 0.3162 µM): 0.979
relative viability (A549; first compound 1 µM): 0.968
relative viability (NCI-H1299; first compound 0.01 µM): 0.957
relative viability (NCI-H1299; first compound 0.03162 µM): 0.957
relative viability (NCI-H1299; first compound 0.1 µM): 0.969
relative viability (NCI-H1299; first compound 0.3162 µM): 0.961
relative viability (NCI-H1299; first compound 1 µM): 0.964
relative viability (NCI-H2085; first compound 0.01 µM): 0.796
relative viability (NCI-H2085; first compound 0.03162 µM): 0.757
relative viability (NCI-H2085; first compound 0.1 µM): 0.775
relative viability (NCI-H2085; first compound 0.3162 µM): 0.734
relative viability (NCI-H2085; first compound 1 µM): 0.751
relative viability (LOU-NH91; first compound 0.01 µM): 0.775
relative viability (LOU-NH91; first compound 0.03162 µM): 0.774
relative viability (LOU-NH91; first compound 0.1 µM): 0.755
relative viability (LOU-NH91; first compound 0.3162 µM): 0.744
relative viability (LOU-NH91; first compound 1 µM): 0.764
relative viability (NCI-H1437; first compound 0.01 µM): 0.793
relative viability (NCI-H1437; first compound 0.03162 µM): 0.783
relative viability (NCI-H1437; first compound 0.1 µM): 0.811
relative viability (NCI-H1437; first compound 0.3162 µM): 0.849
relative viability (NCI-H1437; first compound 1 µM): 0.813

O=c1cc(-c2cccc3c2Sc2ccccc2S3)oc(N2CCOCC2)c1 + CS(=O)(=O)CCNCc1ccc(-c2ccc3ncnc(Nc4ccc(OCc5cccc(F)c5)c(Cl)c4)c3c2)o1 [Lapatinib] (partner 2 µM)
relative viability (HCC-366; first compound 0.08 µM): 1.12
relative viability (HCC-366; first compound 0.253 µM): 1.71
relative viability (HCC-366; first compound 0.8 µM): 1.12
relative viability (HCC-366; first compound 2.53 µM): 0.995
relative viability (HCC-366; first compound 8 µM): 1.56
relative viability (NCI-H3122; first compound 0.08 µM): 1.03
relative viability (NCI-H3122; first compound 0.253 µM): 1.15
relative viability (NCI-H3122; first compound 0.8 µM): 1
relative viability (NCI-H3122; first compound 2.53 µM): 0.96
relative viability (NCI-H3122; first compound 8 µM): 1.02
relative viability (NCI-H1703; first compound 0.08 µM): 0.886
relative viability (NCI-H1703; first compound 0.253 µM): 1.45
relative viability (NCI-H1703; first compound 0.8 µM): 0.94
relative viability (NCI-H1703; first compound 2.53 µM): 1.1
relative viability (NCI-H1703; first compound 8 µM): 0.971
relative viability (IA-LM; first compound 0.08 µM): 1.16
relative viability (IA-LM; first compound 0.253 µM): 0.806
relative viability (IA-LM; first compound 0.8 µM): 0.693
relative viability (IA-LM; first compound 8 µM): 1.2
relative viability (Calu-6; first compound 0.08 µM): 1.16
relative viability (Calu-6; first compound 0.253 µM): 1.16
relative viability (Calu-6; first compound 0.8 µM): 1.03
relative viability (Calu-6; first compound 2.53 µM): 1.07
relative viability (Calu-6; first compound 8 µM): 1.15
relative viability (HCC-44; first compound 0.08 µM): 1.05
relative viability (HCC-44; first compound 0.253 µM): 1.21
relative viability (HCC-44; first compound 0.8 µM): 0.977
relative viability (HCC-44; first compound 2.53 µM): 0.928
relative viability (HCC-44; first compound 8 µM): 1.14
relative viability (EBC-1; first compound 0.08 µM): 0.201
relative viability (EBC-1; first compound 0.253 µM): 0.191
relative viability (EBC-1; first compound 0.8 µM): 0.196
relative viability (EBC-1; first compound 2.53 µM): 0.204
relative viability (EBC-1; first compound 8 µM): 0.202
relative viability (A549; first compound 0.08 µM): 1.04
relative viability (A549; first compound 0.253 µM): 1.23
relative viability (A549; first compound 0.8 µM): 1.19
relative viability (A549; first compound 2.53 µM): 0.87
relative viability (A549; first compound 8 µM): 0.995
relative viability (NCI-H1299; first compound 0.08 µM): 0.972
relative viability (NCI-H1299; first compound 0.253 µM): 1
relative viability (NCI-H1299; first compound 0.8 µM): 0.997
relative viability (NCI-H1299; first compound 2.53 µM): 0.975
relative viability (NCI-H1299; first compound 8 µM): 0.96
relative viability (NCI-H2085; first compound 0.08 µM): 0.636
relative viability (NCI-H2085; first compound 0.253 µM): 0.86
relative viability (NCI-H2085; first compound 0.8 µM): 0.767
relative viability (NCI-H2085; first compound 2.53 µM): 0.703
relative viability (NCI-H2085; first compound 8 µM): 0.644
relative viability (LOU-NH91; first compound 0.08 µM): 0.707
relative viability (LOU-NH91; first compound 0.253 µM): 0.803
relative viability (LOU-NH91; first compound 0.8 µM): 0.554
relative viability (LOU-NH91; first compound 2.53 µM): 0.751
relative viability (LOU-NH91; first compound 8 µM): 0.732
relative viability (NCI-H1437; first compound 0.08 µM): 0.782
relative viability (NCI-H1437; first compound 0.253 µM): 1.2
relative viability (NCI-H1437; first compound 0.8 µM): 0.817
relative viability (NCI-H1437; first compound 2.53 µM): 0.751
relative viability (NCI-H1437; first compound 8 µM): 1
